BindingDB's records for doi:10.1016/j.bmcl.2009.01.089 (Gsk, 2009)

Target: T1, Gag-Pol polyprotein [1148-1435] (Human immunodeficiency virus 1, UniProt P04585)
T1 construct: 1148-1435
Test: HIV Integrase Strand Transfer Scintillation Proximity Assay (SPA)
Protocol: Purified recombinant integrase was first combined in a complex with biotinylated donor DNA- streptavidin-coated SPA beads. The complex was preincubated with the test compound, and strand transfer was initiated with a radiolabeled target DNA substrate. After incubation, the incorporated radioactivity was read in a Wallac MicroBeta scintillation plate reader using a counting protocol that corrected for optical cross talk between wells.

SMILES	IC50 [nM]	IC50 (pH 7.2, 37 °C) [nM]
NC(=O)c1nc(-c2nnc(Cc3ccc(F)cc3)o2)c(O)c2ncccc12 [7-{5-[(4-fluorophenyl)methyl]-1,3,4-oxadiazol-2-yl}-8-hydroxy-1,6-naphthyridine-5-carboxamide]	100	
Cc1ccc(S(=O)(=O)Nc2nc(-c3nnc(Cc4ccc(F)cc4)o3)c(O)c3ncccc23)cc1 [N-(7-{5-[(4-fluorophenyl)methyl]-1,3,4-oxadiazol-2-yl}-8-hydroxy-1,6-naphthyridin-5-yl)-4-methylbenzene-1-sulfonamide]		42
